Counter-ions that a name gives are not always drawn.
Target: T1, MPO (purified from human polynuclear leukocytes) (Homo sapiens, UniProt P05164)
T1 construct: purified from human polynuclear leukocytes; purchased Calbiochem/EMD Biosciences; host or cells: human polynuclear leukocytes (natural source)
Assay: MPO Amplex Red Activity Assay
Format: biochemical
Conditions: Table 1, 2 μM H2O2, pH 7.4
Procedure, shortened: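 Potency is given as kinact/KI: kobs values from 600 s progress curves, minus the uninhibited rate, are fit against inhibitor concentration. Reactions use 2 μM H2O2, 30 μM Amplex Red, pH 7.4 phosphate buffer with NaCl, DTPA and 2% DMSO, started with […] human MPO. Readout is resorufin fluorescence, catalase background subtracted.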

T1 sequence (P05164 279-745 limits assumed): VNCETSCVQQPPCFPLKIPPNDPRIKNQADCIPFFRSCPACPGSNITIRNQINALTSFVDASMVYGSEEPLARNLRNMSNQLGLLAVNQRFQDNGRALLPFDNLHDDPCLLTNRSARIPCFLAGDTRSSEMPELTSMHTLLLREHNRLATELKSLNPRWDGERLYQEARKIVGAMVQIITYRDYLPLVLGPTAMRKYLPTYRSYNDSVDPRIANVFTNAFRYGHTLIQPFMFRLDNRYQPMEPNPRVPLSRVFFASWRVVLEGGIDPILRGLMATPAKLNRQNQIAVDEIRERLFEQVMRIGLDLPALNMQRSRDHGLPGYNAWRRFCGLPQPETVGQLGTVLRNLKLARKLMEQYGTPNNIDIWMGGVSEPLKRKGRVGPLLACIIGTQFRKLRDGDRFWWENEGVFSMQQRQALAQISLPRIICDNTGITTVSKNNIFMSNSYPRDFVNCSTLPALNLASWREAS
T1 sequence (P05164 165-273 limits assumed): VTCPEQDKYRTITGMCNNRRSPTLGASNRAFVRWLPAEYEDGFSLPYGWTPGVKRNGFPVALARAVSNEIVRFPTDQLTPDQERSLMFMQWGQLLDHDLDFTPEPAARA

Structure (SMILES)	MPO kinact/Ki
COc1ccc(C#N)cc1-c1cc(=O)[nH]c(=S)n1CCO [Example 163, 3-[3-(2-hydroxyethyl)-6-oxo-2-thioxo-1,2,3,6-tetrahydropyrimidin-4-yl]-4-methoxybenzonitrile]	8090 1/s per M
COc1ccc(C)cc1-c1cc(=O)[nH]c(=S)n1CC(N)=O [Example 164, 2-[6-(2-methoxy-5-methylphenyl)-4-oxo-2-thioxo-3,4-dihydropyrimidin-1(2H)-yl]acetamide]	14900 1/s per M
COCCn1c(-c2ccc(N(C)C)nc2)cc(=O)[nH]c1=S [Example 165, 6-[6-(dimethylamino)pyridin-3-yl]-1-(2-methoxyethyl)-2-thioxo-2,3-dihydropyrimidin-4(1H)-one]	1280 1/s per M
COc1ccc(OC)c(-c2cc(=O)[nH]c(=S)n2CCN)c1 [Example 166, 1-(2-aminoethyl)-6-(2,5-dimethoxyphenyl)-2-thioxo-2,3-dihydropyrimidin-4(1H)-one hydrochloride]	8920 1/s per M
COc1cccc(OC)c1-c1cc(=O)[nH]c(=S)n1CCO [Example 167, 6-(2,6-dimethoxyphenyl)-1-(2-hydroxyethyl)-2-thioxo-2,3-dihydropyrimidin-4(1H)-one]	20300 1/s per M
O=c1cc(-c2ccccc2OCCO)n(CCO)c(=S)[nH]1 [Example 168, 6-[2-(2-hydroxyethoxy)phenyl]-1-(2-hydroxyethyl)-2-thioxo-2,3-dihydropyrimidin-4(1H)-one]	8890 1/s per M
COc1ccc(OC)c(-c2cc(=O)[nH]c(=S)n2CCO)c1 [Example 169, 6-(2,5-dimethoxyphenyl)-1-(2-hydroxyethyl)-2-thioxo-2,3-dihydropyrimidin-4(1H)-one]	17800 1/s per M
COc1ccc(C#N)cc1-c1cc(=O)[nH]c(=S)n1CC(N)=O [Example 170, 2-[6-(5-cyano-2-methoxyphenyl)-4-oxo-2-thioxo-3,4-dihydropyrimidin-1(2H)-yl]acetamide]	4030 1/s per M
COCCn1c(-c2cc(C#N)ccc2OC)cc(=O)[nH]c1=S [Example 171, 4-methoxy-3-[3-(2-methoxyethyl)-6-oxo-2-thioxo-1,2,3,6-tetrahydropyrimidin-4-yl]benzonitrile]	8590 1/s per M
COc1ccc(-c2cc(=O)[nH]c(=S)n2CCOC(C)C)cc1 [Example 172, 1-(2-isopropoxyethyl)-6-(4-methoxyphenyl)-2-thioxo-2,3-dihydropyrimidin-4(1H)-one]	2950 1/s per M
COc1ccccc1-c1cc(=O)[nH]c(=S)n1CCOC(C)C [Example 173, 1-(2-isopropoxyethyl)-6-(2-methoxyphenyl)-2-thioxo-2,3-dihydropyrimidin-4(1H)-one]	2910 1/s per M
COc1ccc(-c2cc(=O)[nH]c(=S)n2CC(N)=O)c(OC)c1 [Example 174, 2-[6-(2,4-dimethoxyphenyl)-4-oxo-2-thioxo-3,4-dihydropyrimidin-1(2H)-yl]acetamide]	10500 1/s per M
COc1ccc(-c2cc(=O)[nH]c(=S)n2C[C@@H](C)N)c(OC)c1 [Example 175, 1-[(2R)-2-aminopropyl]-6-(2,4-dimethoxyphenyl)-2-thioxo-2,3-dihydropyrimidin-4(1H)-one hydrochloride]	459 1/s per M
COc1ccc(-c2cc(=O)[nH]c(=S)n2C[C@H](C)N)c(OC)c1 [Example 176, 1-[(2S)-2-aminopropyl]-6-(2,4-dimethoxyphenyl)-2-thioxo-2,3-dihydropyrimidin-4(1H)-one hydrochloride]	2160 1/s per M
CNCCn1c(-c2ccc(OC)cc2OC)cc(=O)[nH]c1=S [Example 177, 6-(2,4-dimethoxyphenyl)-1-[2-(methylamino)ethyl]-2-thioxo-2,3-dihydropyrimidin-4(1H)-one formate]	5130 1/s per M
COc1ccc(-c2cc(=O)[nH]c(=S)n2CCCN)c(OC)c1 [Example 178, 1-(3-aminopropyl)-6-(2,4-dimethoxyphenyl)-2-thioxo-2,3-dihydropyrimidin-4(1H)-one formate]	11100 1/s per M
COc1ccc(-c2cc(=O)[nH]c(=S)n2CC(C)O)c(OC)c1 (stereo not shown) [Example 179, 6-(2,4-dimethoxyphenyl)-1-(2-hydroxypropyl)-2-thioxo-2,3-dihydropyrimidin-4(1H)-one]	2790 1/s per M
COCCn1c(-c2c(OC)cccc2OC)cc(=O)[nH]c1=S [Example 180, 6-(2,6-dimethoxyphenyl)-1-(2-methoxyethyl)-2-thioxo-2,3-dihydropyrimidin-4(1H)-one]	6960 1/s per M
COc1ccc(-c2cc(=O)[nH]c(=S)n2CCCO)c(OC)c1 [Example 181, 6-(2,4-dimethoxyphenyl)-1-(3-hydroxypropyl)-2-thioxo-2,3-dihydropyrimidin-4(1H)-one]	7160 1/s per M
COCCn1c(-c2ccc(OC)cc2OC)cc(=O)[nH]c1=S [Example 182, 6-(2,4-dimethoxyphenyl)-1-(2-methoxyethyl)-2-thioxo-2,3-dihydropyrimidin-4(1H)-one]	8200 1/s per M

Next, values leading:

MPO kinact/Ki	Structure (SMILES)
4830 1/s per M	NCCn1c(-c2cccc(Br)c2)cc(=O)[nH]c1=S [Example 183, 1-(2-aminoethyl)-6-(3-bromophenyl)-2-thioxo-2,3-dihydropyrimidin-4(1H)-one hydrochloride]
5970 1/s per M	COc1cc(OC)c(-c2cc(=O)[nH]c(=S)n2CCO)cc1F [Example 184, 6-(5-fluoro-2,4-dimethoxyphenyl)-1-(2-hydroxyethyl)-2-thioxo-2,3-dihydropyrimidin-4(1H)-one]
9740 1/s per M	COc1ccc(-c2cc(=O)[nH]c(=S)n2CCN)c2ccccc12 [Example 185, 1-(2-aminoethyl)-6-(4-methoxy-1-naphthyl)-2-thioxo-2,3-dihydropyrimidin-4(1H)-one hydrochloride]
3930 1/s per M	O=c1cc(-c2ccccc2OC(F)(F)F)n(CCO)c(=S)[nH]1 [Example 186, 1-(2-hydroxyethyl)-2-thioxo-6-[2-(trifluoromethoxy)phenyl]-2,3-dihydropyrimidin-4(1H)-one]
5640 1/s per M	COc1ccc(-c2cc(=O)[nH]c(=S)n2CCC(=N)N)c(OC)c1 [Example 187, 3-[6-(2,4-dimethoxyphenyl)-4-oxo-2-thioxo-3,4-dihydropyrimidin-1(2H)-yl]propanimidamide trifluoroacetate]
2180 1/s per M	COc1ccc(-c2cc(=O)[nH]c(=S)n2C(C)C(N)=O)c(OC)c1 (stereo not shown) [Example 188, 2-[6-(2,4-dimethoxyphenyl)-4-oxo-2-thioxo-3,4-dihydropyrimidin-1(2H)-yl]propanamide]
2210 1/s per M	COc1ccc(-c2cc(=O)[nH]c(=S)n2CCC(N)=O)c(OC)c1 [Example 189, 3-[6-(2,4-dimethoxyphenyl)-4-oxo-2-thioxo-3,4-dihydropyrimidin-1(2H)-yl]propanamide]
4090 1/s per M	CNC(=O)Cn1c(-c2ccc(OC)cc2OC)cc(=O)[nH]c1=S [Example 190, 2-[6-(2,4-dimethoxyphenyl)-4-oxo-2-thioxo-3,4-dihydropyrimidin-1(2H)-yl]-N-methylacetamide]
14100 1/s per M	COc1ccc(-c2cc(=O)[nH]c(=S)n2CCCCN)c(OC)c1 [Example 191, 1-(4-aminobutyl)-6-(2,4-dimethoxyphenyl)-2-thioxo-2,3-dihydropyrimidin-4(1H)-one hydrochloride]
10800 1/s per M	CNCCCn1c(-c2ccc(OC)cc2OC)cc(=O)[nH]c1=S [Example 192, 6-(2,4-dimethoxyphenyl)-1-[3-(methylamino)propyl]-2-thioxo-2,3-dihydropyrimidin-4(1H)-one hydrochloride]
458 1/s per M	COc1ccc(-c2cc(=O)[nH]c(=S)n2CCC(=O)O)c(OC)c1 [Example 193, 3-[6-(2,4-dimethoxyphenyl)-4-oxo-2-thioxo-3,4-dihydropyrimidin-1(2H)-yl]propanoic acid]
2560 1/s per M	COc1ccc(-c2cc(=O)[nH]c(=S)n2CC(C)(C)O)c(OC)c1 [Example 194, 6-(2,4-dimethoxyphenyl)-1-(2-hydroxy-2-methylpropyl)-2-thioxo-2,3-dihydropyrimidin-4(1H)-one]
5350 1/s per M	COc1ccc(-c2cc(=O)[nH]c(=S)n2CC(C)CO)c(OC)c1 (stereo not shown) [Example 195, 6-(2,4-dimethoxyphenyl)-1-(3-hydroxy-2-methylpropyl)-2-thioxo-2,3-dihydropyrimidin-4(1H)-one]
5640 1/s per M	COc1ccc(-c2cc(=O)[nH]c(=S)n2CCCCO)c(OC)c1 [Example 196, 6-(2,4-dimethoxyphenyl)-1-(4-hydroxybutyl)-2-thioxo-2,3-dihydropyrimidin-4(1H)-one]
5650 1/s per M	COc1ccc(-c2cc(=O)[nH]c(=S)n2C[C@H](O)CN)c(OC)c1 [Example 197, 1-[(2R)-3-amino-2-hydroxypropyl]-6-(2,4-dimethoxyphenyl)-2-thioxo-2,3-dihydropyrimidin-4(1H)-one trifluoroacetate]
8460 1/s per M	COc1cc(OC)c(-c2cc(=O)[nH]c(=S)n2CCN)cc1OC [Example 198, 1-(2-aminoethyl)-2-thioxo-6-(2,4,5-trimethoxyphenyl)-2,3-dihydropyrimidin-4(1H)-one hydrochloride]
9080 1/s per M	COc1ccc(-c2cc(=O)[nH]c(=S)n2CC(O)CN)c(OC)c1 (stereo not shown) [Example 199, 1-(3-amino-2-hydroxypropyl)-6-(2,4-dimethoxyphenyl)-2-thioxo-2,3-dihydropyrimidin-4(1H)-one hydrochloride]
